In general, Km refers to the concentration of substrate that gives half-maximal velocity. The term Ki denotes the equilibrium dissociation constant of an inhibitor or competing ligand from its target.

The test system of one series is es-LAPase. Nature of the series: es-LAPase enzyme kinetic inhibition assay (1-leucine-β-naphthylamide substrate). It counts as biochemical, human. The note with it: for effect on es-LAPase activity / reaction rate (FIG. 2): 167 μM Bestatin, 167 μM reduced Glutathione, 17 μM reduced thioredoxin, versus control es-LAPase; for Vmax of es-LAPase in presence of inhibitor / Km / Ki: Bestatin 167 μM, Glutathione 167 μM, Thioredoxin 17 μM; for Vmax of es-LAPase in presence of inhibitor: LAPase alone 36.8 ± 1.9; for mode of es-LAPase inhibition: from Vmax, Km and Ki analysis; for Km: LAPase alone 1.67 ± 0.14, read-out: Km of es-LAPase in presence of inhibitor; for Ki: read-out: Ki (inhibition constant). On the procedure:
The kinetic assays were performed using a Spectronic Genesys 5 spectrophotometer from Milton Roy (Rochester, N.Y.). Absorbance was recorded every sixty seconds, over a period of 30 min. Enzyme kinetic assays were performed using 8.0×10^−2 U of es-LAPase in a final reaction volume of 600 μl and triplicate samples. […] A corresponding blank without es-LAPase was used as baseline. Both of the cuvettes were transferred to the spectrophotometer where the 1-leucine-β-naphthylmide solution was added last, marking time zero of the reaction.

For series [1], the system named is LAPase (purified preparations obtained from Sigma). Nature of the series: LAPase activity of purified enzyme preparations incubated with 17-β-Estradiol. It counts as biochemical. The note with it: 100 nM 17-β-Estradiol, 24 hrs. On the procedure: Purified preparations of the enzyme obtained from Sigma were incubated with 100 nM 17-β-Estradiol for 24 hrs. LAPase activity was determined fluorometrically using leucine-β-naphthylamide as the substrate as described by Kuramochi et al. [Kuramochi, H. et al., (1987) J. Antibiot., 401605-1611].

For series [2], the system named is primary parental breast carcinoma cells. In words: LAPase release into cell supernatants following estrogen stimulation. It counts as cell-based, human. On the procedure: Primary parental breast carcinoma cells were incubated with 100 nM 17-β-Estradiol for 24 hrs and cell media alone as a control. LAPase in supernatants was isolated using MAb 7B6(IgG1a)-protein-G-LAPase beads prepared by covalently cross-linking the monoclonal antibody. LAPase activity of the LAPase-immunoprecipitated supernatants was determined fluorometrically using leucine-β-naphthylamide as the substrate as described by Kuramochi et al. [Kuramochi, H. et al., (1987) J. Antibiot., 401605-1611].
During the same period, LAPase in cell supernatants of control cells remain unchanged. In addition, LAPase activity was determined in supernatants of primary parental cell lines immunoprecipitated with MAb 7B6(IgG1a)-protein-G-LAPase matrix bound antibodies. […] In addition, there was no effect of estrogen incubation on LAPase activity in purified preparations of this enzyme alone.

In the case of `CC(C)C[C@H](NC(=O)[C@@H](O)[C@H](N)Cc1ccccc1)C(=O)O` [Bestatin], in the series on es-LAPase, the “effect on es-LAPase activity / reaction rate (FIG. 2)” value is “clearly inhibits es-LAPase activity”, the “Vmax of es-LAPase in presence of inhibitor” value (“Vmax … of inhibitor” for short) is 34.0 ± 3.9 10^−6 M/min and the “mode of es-LAPase inhibition” value is “competitive”.
Consider `C[C@]12CC[C@@H]3c4ccc(O)cc4CC[C@H]3[C@@H]1CC[C@@H]2O` [estrogen, 17-β-Estradiol], for which the “effect of estrogen incubation on LAPase activity in purified preparations of the enzyme alone” value in series [1] is “no effect”. Also, in series [2] (100 nM, 24 hours, supernatants immunoprecipitated with MAb 7B6-protein-G matrix, control with media alone 6.4×10^−6 U/ml), the “extracellular LAPase activity of estrogen stimulated cells” value is 7.7×10^−5 U/ml. In addition, the “estrogen concentration of maximum release / optimal activation of LAPase” value in series [2] (24 hours of incubation, dose-dependent) came to 100 nM.
For the molecule `N[C@@H](CCC(=O)N[C@@H](CS)C(=O)NCC(=O)O)C(=O)O` [Glutathione], in the series on es-LAPase, the “effect on es-LAPase activity / reaction rate (FIG. 2)” value is on record as “significant slower rates of reaction”, the Km is 178 ± 25 µM, the “Vmax … of inhibitor” value was 17.2 ± 1.5 10^−6 M/min and the Ki stood at 1.53 ± 0.4 µM. In addition, in the series with es-LAPase, the “mode of es-LAPase inhibition” value is given as “noncompetitive”.

B1: Thioredoxin: thiol-containing peptide; human Thioredoxin purified from CD4+T MP6 cells, compared to E. coli Thioredoxin from Sigma-Aldrich (protein, UniProt P10599 2-105, looked up)
Thioredoxin: VKQIESKTAFQEALDAAGDKLVVVDFSATWCGPCKMIKPFFHSLSEKYSNVIFLEVDVDDCQDVASECEVKCMPTFQFFKKGQKVGEFSGANKEKLEATINELV
For B1, in the series on es-LAPase, the “effect on es-LAPase activity / reaction rate (FIG. 2)” value is reported as “significant slower rates of reaction”, the Km was found to be 23.4 ± 0.6 µM, the “Vmax … of inhibitor” value is 5.31 ± 0.02 10^−6 M/min and the inhibition constant Ki stood at 3.4 ± 0.58 µM. Besides, the “mode of es-LAPase inhibition” value in the series with es-LAPase was “uncompetitive”.

Source of the values: patent US20040106143A1, “Monoclonal antibody against estrogen stimulated leucine aminopeptidase” (priority 2000, published 2004).
